For orientation: Emax means the size of the effect at its maximum, as opposed to the concentration needed.

We go through 15 compounds from patent publication US10947242B2, “[1,2,4]triazolo[1,5and#8208;A]pyrimidine compounds as PDE2 inhibitors” (Janssen Pharmaceutica NV, priority 2016, dated 2021).

Assay [1] deals with T1, Human recombinant PDE2A (hPDE2A) (Homo sapiens, UniProt O00408).
T1 construct: His tag (inferred from metal chelate purification); made in house; host or cells: Sf9 insect cells (baculovirus)
T1 sequence (O00408 whole entry): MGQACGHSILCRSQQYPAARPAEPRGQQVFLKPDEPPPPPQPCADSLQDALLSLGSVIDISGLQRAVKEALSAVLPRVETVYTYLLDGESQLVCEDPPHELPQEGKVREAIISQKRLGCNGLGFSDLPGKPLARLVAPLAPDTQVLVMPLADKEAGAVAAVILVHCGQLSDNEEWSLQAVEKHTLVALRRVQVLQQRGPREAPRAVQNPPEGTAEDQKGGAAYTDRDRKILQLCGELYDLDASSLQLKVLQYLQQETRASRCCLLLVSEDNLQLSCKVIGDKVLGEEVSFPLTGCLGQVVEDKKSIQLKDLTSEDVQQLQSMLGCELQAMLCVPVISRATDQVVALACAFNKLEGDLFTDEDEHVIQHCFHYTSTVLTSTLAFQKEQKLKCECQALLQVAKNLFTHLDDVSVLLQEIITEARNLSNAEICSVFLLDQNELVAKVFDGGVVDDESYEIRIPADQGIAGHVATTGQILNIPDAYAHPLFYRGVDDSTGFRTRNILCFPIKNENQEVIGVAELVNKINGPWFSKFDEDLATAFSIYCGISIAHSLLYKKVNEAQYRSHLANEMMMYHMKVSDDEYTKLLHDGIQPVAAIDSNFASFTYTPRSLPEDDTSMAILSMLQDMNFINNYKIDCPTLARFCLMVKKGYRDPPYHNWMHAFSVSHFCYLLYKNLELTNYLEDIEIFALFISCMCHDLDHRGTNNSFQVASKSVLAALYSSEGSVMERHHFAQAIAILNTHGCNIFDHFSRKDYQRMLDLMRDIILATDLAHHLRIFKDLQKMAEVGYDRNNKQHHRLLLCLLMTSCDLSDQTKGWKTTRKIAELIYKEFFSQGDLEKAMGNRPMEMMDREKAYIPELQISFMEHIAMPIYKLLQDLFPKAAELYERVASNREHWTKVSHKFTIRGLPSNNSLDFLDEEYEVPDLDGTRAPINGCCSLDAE
As to the kind of experiment: In vitro assay PDE2A (SPA, 3H-cGMP hydrolysis). It is filed as biochemical. The following applies: for Emax: read-out: hPDE2A Emax.

Assay [2] concerns the target T2, Human recombinant PDE10A (hPDE10A) (Homo sapiens, UniProt Q9Y233).
T2 construct: His tag (inferred from metal chelate purification); made in house; host or cells: Sf9 insect cells (baculovirus)
Kind of assay: In vitro assay PDE10A, human clone (SPA, 3H-cAMP hydrolysis). It is filed as biochemical. The following applies: human clone (h), default; for Emax: read-out: hPDE10A2 Emax; for IC50: read-out: hPDE10A2 pIC50 (converted). The method in brief:
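Human recombinant PDE10A was expressed in Sf9 cells via baculovirus and incubated with compound in 50 mM Tris pH 7.8, 8.3 mM MgCl2, 1.7 mM EGTA. Substrate was 60 nM cAMP plus 0.008 μCi 3H-cAMP for 60 min at room temperature, read by SPA scintillation counting. Controls used 1% DMSO, and blanks omitted enzyme.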

A further assay concerns the target T3, PDE2A (Rattus norvegicus, UniProt Q01062).
T3 construct: Twenty μm-thick striatal sections were cut; from tissue; host or cells: rat brain, striatal sections
T3 sequence (Q01062 1-928): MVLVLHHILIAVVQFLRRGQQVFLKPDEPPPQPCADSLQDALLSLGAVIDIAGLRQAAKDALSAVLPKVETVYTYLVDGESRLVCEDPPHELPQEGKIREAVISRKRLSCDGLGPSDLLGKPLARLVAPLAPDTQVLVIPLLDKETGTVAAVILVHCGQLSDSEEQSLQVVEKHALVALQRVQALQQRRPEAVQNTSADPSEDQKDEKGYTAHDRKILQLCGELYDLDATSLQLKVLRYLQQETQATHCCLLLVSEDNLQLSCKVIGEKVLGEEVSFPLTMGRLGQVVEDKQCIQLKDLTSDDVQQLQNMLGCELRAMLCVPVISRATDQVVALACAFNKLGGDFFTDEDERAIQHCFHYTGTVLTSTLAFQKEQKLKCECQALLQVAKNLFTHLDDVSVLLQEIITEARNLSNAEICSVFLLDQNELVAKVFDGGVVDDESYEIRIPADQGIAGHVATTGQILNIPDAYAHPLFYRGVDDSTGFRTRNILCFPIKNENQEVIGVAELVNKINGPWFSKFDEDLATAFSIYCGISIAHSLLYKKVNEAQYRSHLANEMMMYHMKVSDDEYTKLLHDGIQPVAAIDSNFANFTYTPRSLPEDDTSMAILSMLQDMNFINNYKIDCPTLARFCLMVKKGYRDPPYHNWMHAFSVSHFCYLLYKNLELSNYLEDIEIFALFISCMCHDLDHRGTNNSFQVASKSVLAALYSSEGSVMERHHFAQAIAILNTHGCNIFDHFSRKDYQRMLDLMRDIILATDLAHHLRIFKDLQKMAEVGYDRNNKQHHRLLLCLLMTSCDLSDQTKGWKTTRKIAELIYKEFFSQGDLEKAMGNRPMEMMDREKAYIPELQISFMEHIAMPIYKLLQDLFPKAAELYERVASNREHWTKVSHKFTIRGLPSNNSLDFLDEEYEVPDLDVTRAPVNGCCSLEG
Kind of assay: PDE2 occupancy by test compounds, ex-vivo autoradiography with [3H]B-17a. It is filed as in vivo, Male Wistar rats. The following applies: 10 mg/kg, percentage receptor occupancy, ex-vivo autoradiography, striatum.

Assay [3] has as its target T4, Human recombinant PDE3A (hPDE3A) (Homo sapiens, UniProt Q14432).
T4 construct: purchased Scottish Biomedical; host or cells: Sf9 insect cells
As to the kind of experiment: In vitro assay PDE3A (SPA, 3H-cAMP hydrolysis).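 As to all read-outs here: the method names PDE3A and the table heading PDE3B.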 The settings on record: for IC50: hPDE3B pIC50, read-out: pIC50 (converted); for Emax: read-out: hPDE3B Emax, read-out: Emax. Format: biochemical. The essentials: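 Human PDE3A, cloned from brain, as partially purified Sf9 lysate. Substrate 0.4 μM cAMP plus [3H]-cAMP (2.4 μCi/ml final) in 50 mM Tris pH 7.8, 8.3 mM MgCl2, 1.7 mM EGTA, 60 min at room temperature, 1% DMSO final. Hydrolysis read by SPA scintillation counting against no-enzyme blanks and DMSO controls.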

Where [4] appears, read: human recombinant PDE2A, 10 μM cGMP substrate, read-out: hPDE2A pIC50 (converted).
The mark [5] stands for this setting: read-out: hPDE2A pIC50 (converted).

Where two headings read alike, the source gives them in different places. Where only a bound is given, the exact number is not on record here.

T4 sequence (Q14432 whole entry): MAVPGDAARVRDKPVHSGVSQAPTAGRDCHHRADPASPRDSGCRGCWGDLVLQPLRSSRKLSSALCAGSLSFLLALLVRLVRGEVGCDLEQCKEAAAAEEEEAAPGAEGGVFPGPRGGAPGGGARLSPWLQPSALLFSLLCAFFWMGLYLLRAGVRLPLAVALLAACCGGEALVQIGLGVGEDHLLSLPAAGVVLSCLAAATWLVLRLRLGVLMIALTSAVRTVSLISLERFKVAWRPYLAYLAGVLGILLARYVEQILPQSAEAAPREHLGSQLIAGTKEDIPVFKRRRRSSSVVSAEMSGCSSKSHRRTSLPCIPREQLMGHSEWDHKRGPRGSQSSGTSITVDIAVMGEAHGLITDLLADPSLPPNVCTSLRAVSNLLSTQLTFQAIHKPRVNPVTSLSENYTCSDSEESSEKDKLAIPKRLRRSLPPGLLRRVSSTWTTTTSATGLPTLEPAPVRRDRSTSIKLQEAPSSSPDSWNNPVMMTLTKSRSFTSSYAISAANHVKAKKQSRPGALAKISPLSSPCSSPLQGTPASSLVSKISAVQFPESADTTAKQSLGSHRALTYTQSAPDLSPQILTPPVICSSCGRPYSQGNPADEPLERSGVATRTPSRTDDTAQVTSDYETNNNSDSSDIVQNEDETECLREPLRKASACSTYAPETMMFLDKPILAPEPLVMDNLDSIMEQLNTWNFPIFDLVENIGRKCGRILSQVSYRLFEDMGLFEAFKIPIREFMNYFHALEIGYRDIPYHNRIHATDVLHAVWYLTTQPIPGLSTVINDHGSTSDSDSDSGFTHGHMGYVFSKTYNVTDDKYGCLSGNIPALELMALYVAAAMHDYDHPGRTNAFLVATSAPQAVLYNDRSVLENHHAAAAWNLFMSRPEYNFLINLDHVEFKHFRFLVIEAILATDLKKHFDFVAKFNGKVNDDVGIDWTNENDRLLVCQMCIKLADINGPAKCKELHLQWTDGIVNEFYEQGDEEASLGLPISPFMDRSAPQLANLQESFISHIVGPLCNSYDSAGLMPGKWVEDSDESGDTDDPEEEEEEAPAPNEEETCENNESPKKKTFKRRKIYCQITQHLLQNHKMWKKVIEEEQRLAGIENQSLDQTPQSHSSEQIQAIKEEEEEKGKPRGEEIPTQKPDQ
T2 sequence (Q9Y233 267-1055): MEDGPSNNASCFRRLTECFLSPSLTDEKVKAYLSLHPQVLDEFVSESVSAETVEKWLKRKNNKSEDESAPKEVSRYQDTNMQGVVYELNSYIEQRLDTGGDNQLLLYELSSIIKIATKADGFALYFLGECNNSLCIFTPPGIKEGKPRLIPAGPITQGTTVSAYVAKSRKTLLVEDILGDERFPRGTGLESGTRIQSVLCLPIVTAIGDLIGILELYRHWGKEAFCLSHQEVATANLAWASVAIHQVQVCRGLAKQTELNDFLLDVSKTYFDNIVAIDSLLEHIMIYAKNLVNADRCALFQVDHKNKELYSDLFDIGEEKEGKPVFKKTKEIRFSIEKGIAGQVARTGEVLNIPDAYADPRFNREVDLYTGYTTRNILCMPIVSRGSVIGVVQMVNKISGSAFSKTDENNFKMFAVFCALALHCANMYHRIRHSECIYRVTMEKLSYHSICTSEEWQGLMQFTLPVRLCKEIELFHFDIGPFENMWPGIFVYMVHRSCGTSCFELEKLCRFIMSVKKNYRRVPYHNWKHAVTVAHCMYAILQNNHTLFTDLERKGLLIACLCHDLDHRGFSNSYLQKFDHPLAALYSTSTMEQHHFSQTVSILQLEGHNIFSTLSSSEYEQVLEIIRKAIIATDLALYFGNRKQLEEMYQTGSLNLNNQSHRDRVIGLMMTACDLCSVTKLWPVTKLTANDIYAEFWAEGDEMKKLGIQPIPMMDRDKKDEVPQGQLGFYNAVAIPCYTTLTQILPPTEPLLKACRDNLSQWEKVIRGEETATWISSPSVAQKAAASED

Consider `Cc1cc([C@@H]2CN(C(=O)c3cc(C)c(F)c(C)c3)CC[C@H]2C)n2ncnc2n1` [Compound 117], for which the IC50 in assay [1] (hPDE2A pIC50) is 1.15 nM; in assay [2] it was 9.77 nM; in assay [3], 851 nM. In addition, the maximal response (Emax) in assay [1] turned out to be 100%; in assay [2], 99%; in assay [3], 97%. Also, the receptor occupancy at 10 mg/kg at PDE2A (po, route PO (oral)) is 8%.
Take `C[C@@H]1CCN(C(=O)c2ccc(Cl)c(OC(F)F)c2)C[C@H]1c1cc(C(F)F)nc2ncnn12` [Compound 121]: the IC50 in assay [1] (setting [4]) is 1.78 nM; in assay [1] (setting [5]), 1.78 nM; in assay [2], 58.9 nM; in assay [3], 513 nM. Besides, the Emax worked out at 99% in assay [1] (human recombinant PDE2A), 99% in assay [1], 96% in assay [2] and 95% in assay [3]. Besides, the receptor occupancy at 10 mg/kg on PDE2A (po, route PO (oral)) is -15%.
Turning to `COc1cc(C(=O)N2CC[C@@H](C)[C@H](c3cc(C(F)F)nc4ncnn34)C2)nc2ccccc12` [Compound 125], the IC50 in assay [1] (setting [4]) is 2.09 nM; in assay [1] (setting [5]), 2.09 nM; in assay [2], 589 nM; in assay [3], 589 nM. Besides, the Emax is 100% in assay [1] (human recombinant PDE2A), 100% in assay [1], 96% in assay [2] and 96% in assay [3]. For the same compound, the receptor occupancy at 10 mg/kg at PDE2A (po, route PO (oral)) is -16%.
As for `COc1ncc(C(=O)N2CC[C@@H](C)[C@H](c3cc(C(F)F)nc4ncnn34)C2)cc1Cl` [Compound 134], the IC50 was 3.16 nM in assay [1] (setting [4]), 3.16 nM in assay [1] (setting [5]), 158 nM in assay [2] and 2240 nM in assay [3]. Besides, the Emax in assay [1] (human recombinant PDE2A) is 101%; in assay [1], 101%; in assay [2], 100%; in assay [3] it was 84%. Besides, the receptor occupancy at 10 mg/kg at PDE2A (po, route PO (oral)) was 21%.
With `C[C@@H]1CCN(C(=O)c2ccn(C)n2)C[C@H]1c1cc(C(F)F)nc2ncnn12` [Compound 139], the IC50 in assay [1] (setting [4]) is 28.8 nM; in assay [1] (setting [5]) it was 28.8 nM; in assay [2] it was 2400 nM; in assay [3], > 10000 nM. Further, the maximal effect (Emax) was 99% in assay [1] (human recombinant PDE2A), 99% in assay [1], 78% in assay [2] and 20% in assay [3]. In addition, at PDE2A (po, route PO (oral)), the receptor occupancy at 10 mg/kg was -11%.
Take `C[C@@H]1CCN(C(=O)c2ccc(Cl)c(C(F)(F)F)c2)C[C@H]1c1cc(C(F)F)nc2ncnn12` [Compound 169]: the IC50 in assay [1] (setting [4]) is 3.72 nM; in assay [1] (setting [5]), 3.72 nM; in assay [2] it was 178 nM; in assay [3] it was 1780 nM. For the same compound, the maximal effect (Emax) in assay [1] (human recombinant PDE2A) amounted to 98%; in assay [1], 98%; in assay [2] it was 98%; in assay [3], 82%. Moreover, at PDE2A (po, route PO (oral)), the receptor occupancy at 10 mg/kg was 3%.
For `C[C@@H]1CCN(C(=O)c2cc3c(nc2Cl)CCCC3)C[C@H]1c1cc(C(F)F)nc2ncnn12` [Compound 170], the IC50 was 4.57 nM in assay [1] (setting [4]), 4.57 nM in assay [1] (setting [5]), 1290 nM in assay [2] and 2140 nM in assay [3]. Besides, the Emax in assay [1] (human recombinant PDE2A) is 100%; in assay [1], 100%; in assay [2] it was 84%; in assay [3], 84%. The receptor occupancy at 10 mg/kg on PDE2A (po, route PO (oral)) is 1%.
On to `Cc1nocc1C(=O)N1CC[C@@H](C)[C@H](c2cc(C(F)F)nc3ncnn23)C1` [Compound 184], for which the IC50 is 28.2 nM in assay [1] (setting [4]), 28.2 nM in assay [1] (setting [5]), 2750 nM in assay [2] and > 10000 nM in assay [3]. In addition, the Emax was 100% in assay [1] (human recombinant PDE2A), 100% in assay [1], 75% in assay [2] and 17% in assay [3]. The receptor occupancy at 10 mg/kg on PDE2A (po, route PO (oral)) is -2%.
In the case of `C[C@@H]1CCN(C(=O)c2ccc(F)c(O)c2)C[C@H]1c1cc(C(F)F)nc2ncnn12` [Compound 186], the IC50 in assay [1] (setting [4]) is 10.7 nM; in assay [1] (setting [5]), 10.7 nM; in assay [2], 339 nM; in assay [3], 6030 nM. Moreover, the maximal response (Emax) was determined as 100% in assay [1] (human recombinant PDE2A), 100% in assay [1], 95% in assay [2] and 69% in assay [3]. The receptor occupancy at 10 mg/kg on PDE2A (sc, route SC (subcutaneous)) came out at 8%.
For the compound `C[C@@H]1CCN(C(=O)c2noc3ccccc23)C[C@H]1c1cc(C(F)F)nc2ncnn12` [Compound 187], the IC50 in assay [1] (setting [4]) was 17.8 nM; in assay [1] (setting [5]), 17.8 nM; in assay [2] it was 427 nM; in assay [3] it was 3470 nM. Moreover, the Emax worked out at 99% in assay [1] (human recombinant PDE2A), 99% in assay [1], 95% in assay [2] and 74% in assay [3]. On PDE2A (sc, route SC (subcutaneous)), the receptor occupancy at 10 mg/kg amounted to 0%.
Turning to `Cc1nc2cc(C(=O)N3CC[C@@H](C)[C@H](c4cc(C(F)F)nc5ncnn45)C3)ccc2o1` [Compound 188], the IC50 in assay [1] (setting [4]) was 8.51 nM; in assay [1] (setting [5]) it was 8.51 nM; in assay [2] it was 209 nM; in assay [3], 1550 nM. The Emax in assay [1] (human recombinant PDE2A) was found to be 99%; in assay [1] it was 99%; in assay [2], 98%; in assay [3] it was 87%. On PDE2A (sc, route SC (subcutaneous)), the receptor occupancy at 10 mg/kg was found to be 2%.
`C[C@@H]1CCN(C(=O)c2cc(F)cc(C#N)c2)C[C@H]1c1cc(C(F)F)nc2ncnn12` [Compound 190]: the IC50 in assay [1] (hPDE2A pIC50) was 10.2 nM; in assay [1] (hPDE2A pIC50, human recombinant PDE2A, 10 μM cGMP substrate), 10.2 nM; in assay [2], 158 nM; in assay [3], > 10000 nM. For the same compound, the Emax in assay [1] worked out at 100%; in assay [2], 96%; in assay [3], 39%. In addition, the receptor occupancy at 10 mg/kg at PDE2A (po, route PO (oral)) was determined as 1%.
As to `C[C@@H]1CCN(C(=O)c2ccc(F)c(OC(F)F)c2)C[C@H]1c1cc(C(F)F)nc2ncnn12` [Compound 193], the IC50 in assay [1] (setting [4]) was 5.89 nM; in assay [1] (setting [5]), 5.89 nM; in assay [2], 138 nM; in assay [3], 3470 nM. The Emax was 100% in assay [1] (human recombinant PDE2A), 100% in assay [1], 98% in assay [2] and 76% in assay [3]. For the same compound, the receptor occupancy at 10 mg/kg on PDE2A (po, route PO (oral)) is -11%; at PDE2A (sc, route SC (subcutaneous)) it was -3%.
As for `COc1cc(C(=O)N2CC[C@@H](C)[C@H](c3cc(C(F)F)nc4ncnn34)C2)ccc1F` [Compound 195], the IC50 in assay [1] (setting [4]) was 4.47 nM; in assay [1] (setting [5]), 4.47 nM; in assay [2], 372 nM; in assay [3], 5620 nM. The maximal effect (Emax) in assay [1] (human recombinant PDE2A) is 98%; in assay [1], 98%; in assay [2], 93%; in assay [3], 70%. Besides, the receptor occupancy at 10 mg/kg was -7% at PDE2A (po, route PO (oral)) and -13% on PDE2A (sc, route SC (subcutaneous)).
On to `COc1ccc(C(=O)N2CC[C@@H](C)[C@H](c3cc(C(F)F)nc4ncnn34)C2)cn1` [Compound 196], for which the IC50 in assay [1] (setting [4]) was 23.4 nM; in assay [1] (setting [5]) it was 23.4 nM; in assay [2], 562 nM; in assay [3], 4900 nM. The Emax came to 99% in assay [1] (human recombinant PDE2A), 99% in assay [1], 92% in assay [2] and 68% in assay [3]. For the same compound, the receptor occupancy at 10 mg/kg at PDE2A (po, route PO (oral)) amounted to 0%.
